Measured values taken from patent US4228304A, “Novel cyclohexanecarboxylic acid and its derivatives” (Hisamitsu Pharmaceutical Co. Inc., priority 1977, dated 1980).

Experiments:
Acute toxicity (rabbit) = settings: in vivo, po; female rabbit
Acute toxicity (mouse) = settings: in vivo
Method: (§1) Each test compound suspended in 0.5% tragacanth gum-saline was administered orally, subcutaneously or intraperitoneally to animals ddY strain mouse and Wistar strain rats. The 50% lethal dose and the 95% confidence limit were calculated by Litchfield-Wilcoxon's method from the death of animals in 3 weeks following administration.

Acute toxicity (dog) = type: in vivo; settings: in vivo, po; male dog
dog = assay: Acute toxicity (dog); type: in vivo; settings: female dog, p.o.; 30240 min
Acute toxicity (rat) = settings: in vivo
Method: as §1

[1] = tested on: Picryl Chloride induced contact dermatitis; assay: Picryl Chloride induced contact dermatitis; type: in vivo, mouse (ddY strain); settings: Mus musculus, po; 100 mg/kg, orally; ear swelling 24 hours after second challenge
Method: (3) Picryl Chloride induced contact dermatitis
At first 0.1 ml of 7% picryl chloride-ethanol solution was applied to skin of the depilated abdomens (area 2.5×15 mm) of ddY-strain male mice (body weight 20-22 g). After one week each 0.02 ml of 1% picryl chloride-olive oil solution was applied topically to the ears of the mouse. […] After three days 0.1 ml of 7% picryl chloride-ethanol solution was applied again to the depilated abdomens of the mice. After one week, each 0.02 ml of 1% picryl chloride-olive oil solution per ear were applied topically to the bilateral ears, and at same time, the test compounds were administered orally. Immediately before and 24 hours after the second challenge, the thickness of the ears was measured and the swelling was calculated. The percent inhibitions were calculated by the ratio of the each swelling to the control.

[2] = tested on: rat adjuvant polyarthritis; assay: Effect on rat adjuvant polyarthritis; type: in vivo, rat (Sprague Dawley strain); settings: oral daily: Compound No. 1 200 mg/kg, Ibuprofen 50 mg/kg, Prednisolone 0.5 mg/kg
Method: (5) Effect on rat adjuvant polyarthritis
A group of eight to ten male Sprague Dawley strain rats (body weight 240-280 g) were used. 0.1 ml of Complete Freuind's adjuvant (CFA, Mycobacterium butyricum, 100 mg/10 cc) was injected intradermally to the right hind sole.

[3] = tested on: lung fragment of guinea pig; assay: Mediator (histamine) release on lung fragment of guinea pig; type: cell-based, guinea pig (Hartley strain); settings: 10^-4 g/ml
Method: (4) Mediator release on lung fragment of guinea pig.
A group of Hartley strain male guinea pigs (body weight 250-300 g) were administered intraperitoneally anti-BPO-BGG IgE serum. The animals were sacrificed by decapitation, and those sensitized lungs were isolated for use. […] Following 10 minute incubation, the amount of the released histamine were determined by bioassay.

[4] = tested on: passive cutaneous anaphylaxis in rat; assay: Homologeous passive cutaneous anaphylaxis in rat; type: in vivo, rat (Wistar strain); settings: 100 mg/kg, orally; exuded pigment vs control
Method: (2) Homologeous passive cutaneous anaphylaxis in rat Each test compound suspended in 0.5% tragacanth gum-distilled water was administered orally to a group of five male Wistar strain rats (body weight 150-200 g). After one hour 0.1 ml of 5% anti-Dinitrophinol conpled Ascaris rat IgE serum-physiological sodium chloride solution was injected intradermally to dorsum of the rat. […] The animals were sacrificed by decapitation 30 minutes after the injection. Thereafter the skin of the animals were removed and the amount of the pigment exuded into the inflamed skin was determined. The percent inhibitions were calculated by the ratio of the amounts of exuded pigments to the control.

Structure (SMILES): CC(C)CCC[C@H]1CC[C@@](C)(C(=O)O)CC1 [Compound No. 1, cis-4-isohexyl-1-methylcyclohexanecarboxylic acid]
- LD50 at 504 h (Acute toxicity (rabbit)): > 6000 mg/kg
- LD50 at 504 h (Acute toxicity (mouse); ip, female mouse): 998 mg/kg
- LD50 at 504 h (Acute toxicity (mouse); ip, male mouse): 1110 mg/kg
- LD50 at 504 h (Acute toxicity (mouse); po, female mouse): 6390 mg/kg
- LD50 at 504 h (Acute toxicity (mouse); po, male mouse): 5950 mg/kg
- LD50 at 504 h (Acute toxicity (mouse); sc, female mouse): > 10000 mg/kg
- LD50 at 504 h (Acute toxicity (mouse); sc, male mouse): > 10000 mg/kg
- LD50 at 504 h (Acute toxicity (dog)): > 5000 mg/kg
- LD50 (dog): > 5000 mg/kg
- LD50 at 504 h (Acute toxicity (rat); ip, female rat): 1690 mg/kg
- LD50 at 504 h (Acute toxicity (rat); ip, male rat): 2070 mg/kg
- LD50 at 504 h (Acute toxicity (rat); po, female rat): > 10000 mg/kg
- LD50 at 504 h (Acute toxicity (rat); po, male rat): > 10000 mg/kg
- LD50 at 504 h (Acute toxicity (rat); sc, female rat): > 10000 mg/kg
- LD50 at 504 h (Acute toxicity (rat); sc, male rat): > 10000 mg/kg
- inhibition in vivo at 100 mg/kg [1]: 49%
- Swelling percent of left hind paw (non-treatment of CFA) ([2]; day 0): -1.3±1.8%
- Swelling percent of right hind paw (treatment of CFA) ([2]; day 0): 118.1± 5.0%
- Swelling percent of left hind paw (non-treatment of CFA) ([2]; day 1): -3.0±1.2%
- Swelling percent of right hind paw (treatment of CFA) ([2]; day 1): 100.0± 5.3%
- Swelling percent of left hind paw (non-treatment of CFA) ([2]; day 4): -0.8±2.0%
- Swelling percent of right hind paw (treatment of CFA) ([2]; day 4): 255.4±13.8%
- Swelling percent of left hind paw (non-treatment of CFA) ([2]; day 7): 4.5±3.3%
- Swelling percent of right hind paw (treatment of CFA) ([2]; day 7): 216.3±12.8%
- Swelling percent of left hind paw (non-treatment of CFA) ([2]; day 10): 11.8±2.4%
- Swelling percent of right hind paw (treatment of CFA) ([2]; day 10): 173.8± 7.1%
- Swelling percent of left hind paw (non-treatment of CFA) ([2]; day 14): 13.3±1.6%
- Swelling percent of right hind paw (treatment of CFA) ([2]; day 14): 169.5± 8.0%
- Swelling percent of left hind paw (non-treatment of CFA) ([2]; day 17): 13.2±1.7%
- Swelling percent of right hind paw (treatment of CFA) ([2]; day 17): 166.0± 8.6%
- Swelling percent of left hind paw (non-treatment of CFA) ([2]; day 21): 8.5±2.0%
- Swelling percent of right hind paw (treatment of CFA) ([2]; day 21): 163.0±10.5%
- inhibition (released histamine) [3]: 24.2%
- Inhibition [4]: 28%
